Legend:
[1] = tested on: Escherichia coli EDL 933; test: MIC by broth dilution method in 96-well microplates; assay type: cell-based; details: Mueller Hinton Broth, 24 h
[2] = tested on: Salmonella typhimurium SL1344; test: as above; assay type: cell-based; details: Mueller Hinton Broth, 24 h
[3] = tested on: Listeria monocytogenes HPB 2812; test: as above; assay type: cell-based; details: Mueller Hinton Broth, 24 h
[4] = tested on: Staphylococcus aureus ATCC 25923; test: as above; assay type: cell-based; details: Mueller Hinton Broth, 24 h
[5] = tested on: Bacillus cereus L8PQ; test: as above; assay type: cell-based; details: Mueller Hinton Broth, 24 h
[6] = tested on: Aspergillus niger ATCC 1015; test: as above; assay type: cell-based; details: Mueller Hinton Broth, 24 h
[7] = tested on: Xeromyces bisporus ATCC MY-36964; test: as above; assay type: cell-based; details: Mueller Hinton Broth, 24 h
[8] = tested on: Zygosaccharomyces rouxii ATCC R 995; test: as above; assay type: cell-based; details: Mueller Hinton Broth, 24 h
[9] = tested on: total aerobic microflora (TAM); test: Accelerated shelf-life testing of strawberry fillings and puddings; assay type: cell-based; details: 0.2% by mass Composition A or 0.1% by mass sodium benzoate; 28° C., 70% RH, 35 days (Month 1 to Month 15)
Protocol: (§1) The shelf-life of the strawberry fillings and strawberry flavor puddings, containing 0.2% by mass Composition A or 0.1% by mass sodium benzoate, […], from a procedure by Kilcast and Persis (2000) by determining the concentration of total aerobic microflora (TAM) and yeast/molds (YM). […]; Sheldon Manufacturing Inc., Cornelius, Oreg., USA), in order to simulate an accelerated maturity of the products. A storage time of 2 weeks in these conditions corresponds to 6 months in normal conditions (20° C., 45% RH). […] Samples were homogenized for 2 min at 260 rpm in 50 mL of sterile peptone water (0.1% w/v) with a Lab-Blender™ 400 stomacher (Laboratory Equipment, London, UK). From each homogenate, serial dilutions were prepared, plated onto surface of Plate Count Agar (PCA) (Difco, BD) for TAM enumeration or PDA for YM enumeration and incubated for 24-48 h at 37° C. (resp. 28° C.) before counting.

[10] = tested on: yeast/molds (YM); test: as above; assay type: cell-based
Protocol: as §1

[11] = tested on: S. cerevisiae ISI107; test: MIC microtiter plate assay in filtered apple juice; assay type: cell-based, Saccharomyces cerevisiae; details: filtered apple juice (pH 3.59), 25° C., aerobically
[12] = has been reported; cited from earlier work

Compound: O=C([O-])c1ccccc1.[Na+] [Sodium benzoate, sodium benzoate]
- MIC [1]: 10 730 ppm
- MIC [2]: 5 185 ppm
- MIC [3]: 5 185 ppm
- MIC [4]: 5 185 ppm
- MIC [5]: 5 185 ppm
- MIC [6]: 648 ppm
- MIC [7]: 81 ppm
- MIC [8]: 162 ppm
- TAM concentration in strawberry fillings [9]: total inhibition
- Yeast/Mold (Y/M) concentration in strawberry flavor puddings ([10]; 0.2% Composition A or 0.1% sodium benzoate, after 35 days accelerated storage, also no growth in control, data not shown): no growth
- Yeast/Mold (Y/M) concentration in strawberry fillings ([10]; 0.2% by mass Composition A or 0.1% by mass sodium benzoate, 28° C., 70% RH, 35 days (Month 1 to Month 15)): total inhibition

Compound: CCCCCCCCCCCC(=O)N[C@@H](CCCN=C(N)N)C(=O)OCC [lauric arginate, ethyl lauroyl arginate]
- MIC [11]: about 156 ppm
- Resistance to thermal processing [12]: resistant to all types of thermal processing including boiling
